Experimental data from PubChem BioAssay (NCI).
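Each compound was tested at five concentrations against cells in 96-well plates for 48 hours. The concentration for full growth arrest is given as TGI.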

Legend:
Test in all cases: growth of human tumour cells (NCI), 48 h
[1] = test system: OVCAR-4 ovarian
[2] = test system: MOLT-4 leukemia
[3] = test system: HOP-18 NSCLC
[4] = test system: SF-268 CNS
[5] = test system: OVCAR-5 ovarian
[6] = test system: NCI-H460 lung
[7] = test system: UACC-257 melanoma
[8] = test system: SK-MEL-2 melanoma
[9] = test system: SK-MEL-28 melanoma
[10] = test system: KM12 colon
[11] = test system: OVCAR-3 ovarian
[12] = test system: ACHN renal
[13] = test system: CCRF-CEM leukemia
[14] = test system: HL-60(TB) leukemia
[15] = test system: DLD-1 colon
[16] = test system: SK-MEL-5 melanoma
[17] = test system: DMS 114 small cell lung
[18] = test system: OVCAR-8 ovarian
[19] = test system: HCT-15 colon
[20] = test system: NCI-H23 lung
[21] = test system: SW-620 colon
[22] = test system: LXFL 529 NSCLC
[23] = test system: HOP-92 NSCLC
[24] = test system: IGROV1 ovarian
[25] = test system: RXF 393 renal
[26] = test system: RXF-631 renal
[27] = test system: A549 NSCLC
[28] = test system: COLO 205 colon
[29] = test system: HCT-116 colon
[30] = test system: MALME-3M melanoma
[31] = test system: CAKI-1 renal
[32] = test system: DMS 273 small cell lung
[33] = test system: NCI-H226 lung
[34] = test system: M14 melanoma
[35] = test system: SF-295 CNS
[36] = test system: SR leukemia
[37] = test system: HCC-2998 colon
[38] = test system: SK-OV-3 ovarian
[39] = test system: A498 renal
[40] = test system: SNB-78 CNS
[41] = test system: 786-0 renal
[42] = test system: SN12C renal
[43] = test system: U251 CNS
[44] = test system: UACC-62 melanoma
[45] = test system: HT29 colon
[46] = test system: SF-539 CNS
[47] = test system: HOP-62 NSCLC
[48] = test system: RPMI-8226 leukemia
[49] = test system: NCI-H522 lung
[50] = test system: TK-10 renal
[51] = test system: K-562 leukemia
[52] = test system: KM20L2 colon
[53] = test system: SNB-75 CNS
[54] = test system: M19-MEL melanoma
[55] = test system: EKVX NSCLC
[56] = test system: UO-31 renal
[57] = test system: LOX IMVI melanoma
[58] = test system: SNB-19 CNS
[59] = test system: XF 498 CNS

Compound: NC(=O)N/N=C1/CCCC/C1=C\c1ccccc1
- TGI [1]: > 100 µM
- TGI [2]: > 100 µM
- TGI [3]: > 100 µM
- TGI [4]: > 100 µM
- TGI [5]: > 100 µM
- TGI [6]: > 100 µM
- TGI [7]: > 100 µM
- TGI [8]: > 100 µM
- TGI [9]: > 100 µM
- TGI [10]: > 100 µM
- TGI [11]: > 100 µM
- TGI [12]: > 100 µM
- TGI [13]: > 100 µM
- TGI [14]: > 100 µM
- TGI [15]: > 100 µM
- TGI [16]: > 100 µM
- TGI [17]: > 100 µM
- TGI [18]: > 100 µM
- TGI [19]: > 100 µM
- TGI [20]: > 100 µM
- TGI [21]: > 100 µM
- TGI [22]: > 100 µM
- TGI [23]: > 100 µM
- TGI [24]: > 100 µM
- TGI [25]: > 100 µM
- TGI [26]: > 100 µM
- TGI [27]: > 100 µM
- TGI [28]: > 100 µM
- TGI [29]: > 100 µM
- TGI [30]: > 100 µM
- TGI [31]: > 100 µM
- TGI [32]: > 100 µM
- TGI [33]: > 100 µM
- TGI [34]: > 100 µM
- TGI [35]: > 100 µM
- TGI [36]: > 100 µM
- TGI [37]: > 100 µM
- TGI [38]: > 100 µM
- TGI [39]: > 100 µM
- TGI [40]: > 100 µM
- TGI [41]: > 100 µM
- TGI [42]: > 100 µM
- TGI [43]: > 100 µM
- TGI [44]: > 100 µM
- TGI [45]: > 100 µM
- TGI [46]: > 100 µM
- TGI [47]: > 100 µM
- TGI [48]: > 100 µM
- TGI [49]: > 100 µM
- TGI [50]: > 100 µM
- TGI [51]: > 100 µM
- TGI [52]: > 100 µM
- TGI [53]: > 100 µM
- TGI [54]: > 100 µM
- TGI [55]: > 100 µM
- TGI [56]: > 100 µM
- TGI [57]: > 100 µM

Compound: Oc1cccc2nc3cc(CN4CCOCC4)c(CN4CCOCC4)cc3nc12
- TGI [1]: > 100 µM
- TGI [2]: > 100 µM
- TGI [3]: > 100 µM
- TGI [58]: > 100 µM
- TGI [4]: > 100 µM
- TGI [5]: > 100 µM
- TGI [6]: > 100 µM
- TGI [7]: > 100 µM
- TGI [8]: > 100 µM
- TGI [9]: > 100 µM
- TGI [10]: > 100 µM
- TGI [11]: > 100 µM
- TGI [12]: > 100 µM
- TGI [13]: > 100 µM
- TGI [14]: > 100 µM
- TGI [15]: > 100 µM
- TGI [16]: 55.3 µM
- TGI [18]: > 100 µM
- TGI [19]: > 100 µM
- TGI [20]: > 100 µM
- TGI [21]: > 100 µM
- TGI [59]: > 100 µM
- TGI [22]: > 100 µM
- TGI [23]: > 100 µM
- TGI [24]: > 100 µM
- TGI [25]: > 100 µM
- TGI [26]: > 100 µM
- TGI [27]: > 100 µM
- TGI [28]: > 100 µM
- TGI [29]: > 100 µM
- TGI [30]: > 100 µM
- TGI [31]: > 100 µM
- TGI [32]: > 100 µM
- TGI [33]: > 100 µM
- TGI [34]: 38.9 µM
- TGI [35]: > 100 µM
- TGI [36]: > 100 µM
- TGI [37]: > 100 µM
- TGI [38]: > 100 µM
- TGI [39]: > 100 µM
- TGI [40]: > 100 µM
- TGI [41]: > 100 µM
- TGI [42]: > 100 µM
- TGI [43]: > 100 µM
- TGI [44]: 76.8 µM
- TGI [45]: > 100 µM
- TGI [46]: > 100 µM
- TGI [47]: > 100 µM
- TGI [49]: > 100 µM
- TGI [50]: > 100 µM
- TGI [51]: > 100 µM
- TGI [52]: > 100 µM
- TGI [53]: > 100 µM
- TGI [54]: 66.5 µM
- TGI [55]: > 100 µM
- TGI [56]: > 100 µM
- TGI [57]: > 100 µM

Compound: CCc1c(-c2coc(CC/C(C)=C/c3ccccc3)n2)oc(OC)c(C)c1=O
- TGI [1]: > 55.5 µM
- TGI [2]: > 100 µM
- TGI [3]: > 100 µM
- TGI [58]: > 86.3 µM
- TGI [4]: > 100 µM
- TGI [5]: > 100 µM
- TGI [6]: > 100 µM
- TGI [7]: > 100 µM
- TGI [8]: > 100 µM
- TGI [9]: > 100 µM
- TGI [10]: > 100 µM
- TGI [11]: > 100 µM
- TGI [12]: > 71.4 µM
- TGI [13]: > 100 µM
- TGI [14]: 97.9 µM
- TGI [15]: > 65.6 µM
- TGI [16]: > 46.9 µM
- TGI [17]: 29.2 µM
- TGI [18]: > 100 µM
- TGI [19]: > 55.5 µM
- TGI [20]: > 95.4 µM
- TGI [21]: > 44.7 µM
- TGI [59]: 75.4 µM
- TGI [22]: > 55.5 µM
- TGI [23]: > 100 µM
- TGI [24]: > 100 µM
- TGI [27]: > 100 µM
- TGI [28]: > 47.8 µM
- TGI [29]: > 87.8 µM
- TGI [30]: > 100 µM
- TGI [31]: > 100 µM
- TGI [32]: > 54.7 µM
- TGI [33]: > 100 µM
- TGI [34]: > 61.4 µM
- TGI [35]: > 100 µM
- TGI [36]: 29.3 µM
- TGI [37]: > 100 µM
- TGI [38]: > 100 µM
- TGI [39]: > 100 µM
- TGI [40]: > 100 µM
- TGI [41]: > 55.4 µM
- TGI [42]: > 62.2 µM
- TGI [43]: > 53.9 µM
- TGI [44]: > 53 µM
- TGI [45]: > 31.6 µM
- TGI [46]: > 65 µM
- TGI [47]: > 100 µM
- TGI [48]: > 100 µM
- TGI [49]: 15.3 µM
- TGI [50]: > 100 µM
- TGI [51]: > 100 µM
- TGI [52]: > 54.6 µM
- TGI [53]: > 100 µM
- TGI [54]: > 100 µM
- TGI [55]: > 100 µM
- TGI [56]: > 53.1 µM
- TGI [57]: > 50.9 µM
